“Also recorded” adds a separate entry of the source.
Tests used:
[1] = target: T1, GFP-AR (GFP-tagged androgen receptor, eGFP-hAR) (Homo sapiens, UniProt P10275); assay: GFP-AR cytoplasm-to-nucleus translocation assay in 3108 cells; format: cell-based; details: 30 min treatment, hormones 100 nM or known concentrations, water samples 100×
T1 construct: expressed in transfected cells; host or cells: 3108 cells (derivative of the 3134 mouse mammary adenocarcinoma line), tetracycline-repressible promoter
Procedure: (§1) For biological testing, samples prepared as above were reconstituted in DMSO and diluted in growth media to a final 1,000× concentration from the original water volume while maintaining DMSO at <0.2%. Samples were added to cells for 30 minutes at 100× concentration or as indicated in the text.
Prior to imaging, cells were grown overnight on 22-mm^2 coverslips in DMEM medium containing 10% charcoal stripped serum (Hyclone, Logan, Utah) without tetracycline (to allow the expression of the GFP-GR or GFP-AR, respectively) at a density of 2×10^5 per 6-well plate. For the automated experiments conducted in 96 or 384 well plates, cell density was 10,000 or 2,500 cells per well, respectively. Cells were treated with vehicle control, hormones (100 nM) or water samples for 30 min at 37° C. at a final concentration of 100× for water samples (unless otherwise specified). […]
(§2) A Perkin Elmer Opera Image Screening System was used for fully automated collection of fluorescence images of cells. This system employed a 40× water immersion objective lens, laser illuminated Nipkow disk, and cooled CCD cameras to digitally capture high resolution confocal fluorescence micrographs (300 nm pixel size with 2×2 camera pixel binning). […] The algorithm also measured the mean GFP-GR or GFP-AR intensity in both compartments, and translocation was calculated as a ratio of these intensities. […]

[2] = target: T2, GFP-GR (GFP-tagged glucocorticoid receptor) (Rattus norvegicus, UniProt P06536, C656G/D98G); assay: GFP-GR cytoplasm-to-nucleus translocation assay in 3617 cells; format: cell-based; details: 30 min treatment; water samples 100×
T2 construct: expressed in transfected cells; host or cells: 3617 cells (derivative of the 3134 mouse mammary adenocarcinoma line), tetracycline-repressible promoter
Procedure: as §1
Prior to imaging, cells were grown overnight on 22-mm^2 coverslips in DMEM medium containing 10% charcoal stripped serum (Hyclone, Logan, Utah) without tetracycline (to allow the expression of the GFP-GR or GFP-AR, respectively) at a density of 2×10^5 per 6-well plate. For the automated experiments conducted in 96 or 384 well plates, cell density was 10,000 or 2,500 cells per well, respectively. Cells were treated with vehicle control, hormones (100 nM) or water samples for 30 min at 37° C. at a final concentration of 100× for water samples (unless otherwise specified). Additional negative controls contained samples that tested the activity of the POCIS membranes themselves.
Upon treatment, cells were fixed with 4% paraformaldehyde in PBS for 15 minutes and washed three times with PBS. Cells on the 22-mm^2 coverslips were mounted in […]® mounting media with DAPI (Vector Laboratories, Inc.) and examined on a Leica DMRA microscope with Leica 100×1.3-N.A. oil immersion objective. Images were acquired in green (GFP-GR and GFP-AR) and UV (DAPI) channel with SenSys (Photometrics) camera with KAF1400 chip configured to collect 0.067-μm-diameter pixels. […]
as §2

SMILES | GFP-AR nuclear translocation (in words) [1] | GFP-AR nuclear translocation (in words) ([1]; listed as androst-4-en-3,6-dione) | GFP-GR nuclear translocation (in words) [2]
C[C@@]12CCC[C@H]1[C@@H]1CC(=O)C3=CC(=O)CC[C@]3(C)[C@H]1CC2 (single isomer, unassigned) [Androst-4-en-3,6-dione] | induced GFP-tagged androgen receptor (GFP-AR) translocation | translocated to the nucleus in concentration-dependent manner; also recorded: induces concentration-dependent translocation | did not induce GFP-GR translocation
CCNc1nc(Cl)nc(NC(C)C)n1 [atrazine] | – | – | did not induce GFP-GR translocation
C[C@]12C[C@H](O)[C@H]3[C@@H](CCC4=CC(=O)CC[C@@]43C)[C@@H]1CC[C@@H]2C(=O)CO [corticosterone] | – | – | translocates to the nucleus in a concentration-dependent manner

Source: patent US9040248B2, “Kits for detecting and monitoring endocrine disrupting chemicals (EDCs)” (The United States of America, as represented by the …, priority 2012, dated 2015)
